{
  "source": "patent US20220380476A1",
  "about": "“Use of an anti-CCR7 antibody in combination therapies with a BTK inhibitor and/or BCL2- inhibitor for treating hematological malignancies” (Catapult Therapeutics B.V., priority 2019, published 2022)",
  "molecules": {"B1": {"name": "CAP-100 (antibody, human IgG1, V domains shown)", "VH": "EVQLLESGGGFVKPGGSLKLSCVVSGLTFRDFAMSWVRQTPEKRLVWVATISSGGFYTYYPDSVKGRFTISRDNVRNILYLQMSSLRSEDTAVYYCVRRAYRYDGTGDYSALDYWGTGTTVTVSS", "VL": "DIQMTQSPSSLSASVGDRVTITCRASQDIGPSLNWYQQKPGKAPKRLIYATSNLDSGVPSRFSGSGSGTDFTLTISSLQPEDFATYYCLQFASSPLTFGQGTKVEIK"}},
  "key": {"CCR7": {"system": "CCR7", "test": "Flow cytometry of surface CCR7 expression in CLL cells from treated patients", "format": "in vivo, human", "conditions": "for change in surface CCR7 expression compared with naïve patients: CLL patients on treatment", "procedure": "Systems). […] Data acquisition was performed on a BD FACSCanto™ 11 Flow Cytometer (BD Biosciences)."}, "Bcl-2 mRNA": {"system": "Bcl-2 mRNA", "conditions": "cited from earlier work"}, "BCL-XL and BCL-W": {"system": "BCL-XL and BCL-W", "conditions": "cited from earlier work"}, "MCL-1": {"target": "MCL-1 (Homo sapiens, UniProt Q07820)", "sequence (Q07820 whole entry, species assumed)": "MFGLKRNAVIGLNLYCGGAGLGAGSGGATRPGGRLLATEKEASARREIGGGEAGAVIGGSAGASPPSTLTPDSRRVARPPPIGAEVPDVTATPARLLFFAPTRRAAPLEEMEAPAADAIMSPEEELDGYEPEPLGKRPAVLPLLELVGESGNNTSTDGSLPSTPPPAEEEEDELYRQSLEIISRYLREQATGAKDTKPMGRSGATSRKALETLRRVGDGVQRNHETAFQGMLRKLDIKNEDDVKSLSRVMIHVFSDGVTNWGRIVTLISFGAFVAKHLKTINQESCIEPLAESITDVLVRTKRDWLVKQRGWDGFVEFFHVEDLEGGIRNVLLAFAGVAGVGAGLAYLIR", "conditions": "cited from earlier work"}, "[1]": {"system": "patients with chronic lymphocytic leukemia (CLL)", "conditions": "cited from earlier work"}, "CD20 (human)": {"target": "CD20 (human) (UniProt P11836)", "sequence (P11836 whole entry)": "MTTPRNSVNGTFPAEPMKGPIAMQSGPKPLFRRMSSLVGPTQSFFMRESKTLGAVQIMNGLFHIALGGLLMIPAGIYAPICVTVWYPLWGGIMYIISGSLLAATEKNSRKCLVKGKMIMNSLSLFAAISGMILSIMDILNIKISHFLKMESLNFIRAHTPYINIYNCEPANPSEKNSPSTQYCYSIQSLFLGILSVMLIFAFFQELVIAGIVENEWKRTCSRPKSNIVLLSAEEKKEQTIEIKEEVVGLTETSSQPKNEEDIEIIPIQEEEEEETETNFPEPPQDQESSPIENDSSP"}, "Bcl-2": {"target": "Bcl-2 (Homo sapiens, UniProt P10415)", "sequence (P10415 whole entry)": "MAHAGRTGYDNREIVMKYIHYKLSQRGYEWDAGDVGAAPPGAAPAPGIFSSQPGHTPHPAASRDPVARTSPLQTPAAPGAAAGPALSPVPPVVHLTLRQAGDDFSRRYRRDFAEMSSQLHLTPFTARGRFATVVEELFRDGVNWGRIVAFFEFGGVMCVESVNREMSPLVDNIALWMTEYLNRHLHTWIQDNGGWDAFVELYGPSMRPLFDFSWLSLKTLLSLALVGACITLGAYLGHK", "conditions": "cited from earlier work"}, "[2]": {"system": "primary cells from patients with B-cell malignancies", "conditions": "in vitro; cited from earlier work"}, "[3]": {"system": "lymphoma and other blood cancers", "conditions": "cited from earlier work"}, "[4]": {"target": "T1, human CC motif receptor 7 (CCR7) (human, UniProt P32248 25-378)", "T1 sequence (looked up)": "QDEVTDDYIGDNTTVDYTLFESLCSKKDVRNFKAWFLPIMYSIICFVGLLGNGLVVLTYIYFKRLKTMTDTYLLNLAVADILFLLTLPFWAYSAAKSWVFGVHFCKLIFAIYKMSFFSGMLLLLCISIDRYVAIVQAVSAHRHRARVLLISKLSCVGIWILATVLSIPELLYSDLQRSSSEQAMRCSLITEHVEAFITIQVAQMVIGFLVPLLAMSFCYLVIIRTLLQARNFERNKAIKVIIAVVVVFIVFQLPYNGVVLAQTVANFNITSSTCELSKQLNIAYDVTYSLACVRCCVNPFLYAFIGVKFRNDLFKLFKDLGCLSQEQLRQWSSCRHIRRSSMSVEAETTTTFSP", "test": "cell-based or functional assay"}, "[5]": {"target": "T1, human CC motif receptor 7 (CCR7)", "test": "cell-based or functional assay", "remark": "listed apart in the source"}, "[6]": {"target": "T1, human CC motif receptor 7 (CCR7)", "test": "cell-based or functional assay", "remark": "listed apart in the source"}, "[7]": {"target": "T1, human CC motif receptor 7 (CCR7)", "test": "cell-based or functional assay", "remark": "listed apart in the source"}, "[8]": {"target": "T1, human CC motif receptor 7 (CCR7)", "test": "cell-based or functional assay", "remark": "listed apart in the source"}, "[9]": {"target": "T1, human CC motif receptor 7 (CCR7)", "test": "cell-based or functional assay", "remark": "listed apart in the source"}},
  "note": "Entries after “also recorded” stand apart in the source; their conditions may differ.",
  "data": [
    {"molecule": "CC#CC(=O)N1CCC[C@H]1c1nc(-c2ccc(C(=O)Nc3ccccn3)cc2)c2c(N)nccn12", "note": "[acalabrutinib]", "values": [
      {"measurement": "change in surface CCR7 expression compared with naïve patients", "setting": "CCR7", "value": "unchanged; also recorded: no changes"}
    ]},
    {"molecule": "oblimersen", "values": [
      {"measurement": "cell proliferation", "setting": "Bcl-2 mRNA", "value": "inhibited"}
    ]},
    {"molecule": "CC1(C)CCC(CN2CCN(c3ccc(C(=O)NS(=O)(=O)c4ccc(NCC5CCOCC5)c([N+](=O)[O-])c4)c(Oc4cnc5[nH]ccc5c4)c3)CC2)=C(c2ccc(Cl)cc2)C1", "note": "[venetoclax]", "values": [
      {"measurement": "percentage of CCR7-expressing CLL cells", "setting": "CCR7; CLL cells from patients on treatment", "value": "approximately 100%"},
      {"measurement": "change in surface CCR7 expression compared with naïve patients", "setting": "CCR7", "value": "maintained in essentially all CLL cells"},
      {"measurement": "binding affinity to BCL-XL and BCL-W", "setting": "BCL-XL and BCL-W", "value": "significantly lower affinity"},
      {"measurement": "inhibition of Bcl-xL or Bcl-w", "setting": "BCL-XL and BCL-W", "value": "not Bcl-xL or Bcl-w"},
      {"measurement": "activity against MCL-1", "setting": "MCL-1", "value": "no activity"},
      {"measurement": "clinical response", "setting": "[1]", "value": "Good responses"},
      {"measurement": "thrombocytopenia", "setting": "[1]", "value": "not observed"}
    ]},
    {"molecule": "RTX (antibody)", "values": [
      {"measurement": "EC50 (read off the curve); ADCC on CLL cells of a patient receiving venetoclax", "setting": "CD20 (human)", "value": 2, "unit": "µg/mL"}
    ]},
    {"molecule": "C=CC(=O)N1CCC([C@@H]2CCNc3c(C(N)=O)c(-c4ccc(Oc5ccccc5)cc4)nn32)CC1", "note": "[zanabrutinib]", "values": [
      {"measurement": "change in surface CCR7 expression compared with naïve patients", "setting": "CCR7", "value": "unchanged; also recorded: no changes"}
    ]},
    {"molecule": "CN(C)CC[C@H](CSc1ccccc1)Nc1ccc(S(=O)(=O)NC(=O)c2ccc(N3CCN(Cc4ccccc4-c4ccc(Cl)cc4)CC3)cc2)cc1[N+](=O)[O-]", "note": "[ABT-737, 4-[4-[(4′-chloro[1,T-biphenyl]-2-yl)methyl]-1-piperazinyl]A/-[[4-[[(1R)-3-(dimethylamino)-1-[(phenylthio)methyl]propyl]amino]-3-nitrophenyl]sulfonyl]benzamide]", "values": [
      {"measurement": "affinity for Bcl-2, Bcl-xL and Bcl-w compared with previous Bcl-2 inhibitors", "setting": "Bcl-2", "value": "higher affinity"},
      {"measurement": "activity against MCL-1", "setting": "MCL-1", "value": "not A1 or Mcl-1"},
      {"measurement": "sensitivity of primary cells", "setting": "[2]", "value": "sensitive"},
      {"measurement": "survival", "setting": "[3]; animal models", "value": "improves survival"},
      {"measurement": "tumor regression", "setting": "[3]; animal models", "value": "causes tumor regression"},
      {"measurement": "efficacy in patient xenografts", "setting": "[3]; preclinical studies utilizing patient xenografts", "value": "shows efficacy"}
    ]},
    {"molecule": "CC1(C)CCC(c2ccc(Cl)cc2)=C(CN2CCN(c3ccc(C(=O)NS(=O)(=O)c4ccc(N[C@H](CCN5CCOCC5)CSc5ccccc5)c(S(=O)(=O)C(F)(F)F)c4)cc3)CC2)C1", "note": "[navitoclax, 4-(4-{[2-(4-Chlorophenyl)-5,5-dimethyl-1-cyclohexen-1-yl]methyl}-1-piperazinyl)-N-[(4-{[(2R)-4-(4-morpholinyl)-1-(phenylsulfanyl)-2-butanyl]amino}-3-[(trifluoromethyl)sulfonyl]phenyl)sulfonyl]-benzamide]", "values": [
      {"measurement": "affinity for Bcl-2, Bcl-xL and Bcl-w compared with previous Bcl-2 inhibitors", "setting": "Bcl-2", "value": "higher affinity"},
      {"measurement": "activity against MCL-1", "setting": "MCL-1", "value": "not A1 or Mcl-1"}
    ]},
    {"molecule": "B1", "values": [
      {"measurement": "IC50 (read off the curve); CCL21-induced migration of CLL cells of a patient receiving venetoclax", "setting": "[4]", "value": "~0.1", "unit": "µg/mL"},
      {"measurement": "IC50 (read off the curve); CCL19-induced migration of CLL cells of an ibrutinib patient", "setting": "[5]", "value": "~0.2", "unit": "µg/mL"},
      {"measurement": "EC50 (read off the curve); ADCC on CLL cells of a patient receiving ibrutinib", "setting": "[6]", "value": "~1", "unit": "µg/mL"},
      {"measurement": "EC50 (read off the curve); ADCC on CLL cells of a patient receiving zanabrutinib", "setting": "[7]", "value": "~0.8", "unit": "µg/mL"},
      {"measurement": "EC50 (read off the curve); ADCC on CLL cells of a patient receiving venetoclax", "setting": "[8]", "value": "~0.2", "unit": "µg/mL"},
      {"measurement": "EC50 (read off the curve); ADCC on CLL cells of a patient with disease relapsed/refractory to ibrutinib", "setting": "[9]", "value": "~1", "unit": "µg/mL"}
    ]}
  ]
}
